{
  "source": "patent US7419780B2",
  "about": "“Methods and assays for screening protein targets” (The Trustees of Columbia University in the City of New York, priority 2000, dated 2008)",
  "format_in_all_cases": "cell-based, S. cerevisiae",
  "conditions_in_all_cases": "1 uM small molecule, difference to activity without small molecule, average of two trials",
  "key": {"[1]": {"molecular_target": "T1, LexA (GSG)2mDHFR / B42 (GSG)rGR2 (UniProt P00375+P06536, C656G/F620S)", "T1 construct": "rat Glucocorticoid Receptor (aa 524-795) with point mutations; expressed in transfected cells; host or cells: S. cerevisiae FY250", "T1 sequence (P00375 1-187)": "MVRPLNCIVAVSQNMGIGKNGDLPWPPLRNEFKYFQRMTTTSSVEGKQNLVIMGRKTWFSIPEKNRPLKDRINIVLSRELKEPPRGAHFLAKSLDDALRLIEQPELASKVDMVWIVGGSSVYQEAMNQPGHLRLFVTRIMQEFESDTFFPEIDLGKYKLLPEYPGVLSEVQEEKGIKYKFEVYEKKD", "T1 sequence (P06536 524-795 F620S/C656G limits assumed)": "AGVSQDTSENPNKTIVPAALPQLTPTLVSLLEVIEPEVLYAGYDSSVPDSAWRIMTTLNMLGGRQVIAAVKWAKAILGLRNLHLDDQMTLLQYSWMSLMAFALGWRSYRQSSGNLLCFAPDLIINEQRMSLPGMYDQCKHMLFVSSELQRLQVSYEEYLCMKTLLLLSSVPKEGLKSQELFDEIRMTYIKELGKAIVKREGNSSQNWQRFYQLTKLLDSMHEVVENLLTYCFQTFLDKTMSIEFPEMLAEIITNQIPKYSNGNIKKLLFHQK", "assay": "β-galactosidase activity assay, strain V504Y", "text": "(§1) Table III explains the components of each strain. Each strain was constructed from the parent yeast strain FY250 and also contains the pMW106 plasmid, which has the LacZ reporter gene that is turned on only in when the LexA DNA binding domain and the B42 activation are brought in tot he vicinity of each other. We use several different strains because we use DHFR from two different species, mDHFR is from murine, while eDHFR is from E. coli. We are asl oable to switch the small moleculebinding domains. For example, the strain containing LexA-eDHFR with B42-rGH2 is a different strain and behaves differently from the strain containing LexA-rGR2 with B42-eDHFR. We also put in short 6 amino acid linkers between the two domains of our protein chimeras and thus these are different strain as well.\n(§2) The results in Table IV are averages of two separate trials. Each strain was examined with small molecules and without small molecules. The absolute activity is given as the β-galactisidase activity […]. The average β-galactosidse activity for a strain without small molecule (i.e. the negative control) was about 100 β-galactosidase units."}, "[2]": {"molecular_target": "T2, LexA (GSG)2mDHFR / B42 rGR2 (UniProt P00375+P06536, C656G/F620S)", "T2 construct": "rat Glucocorticoid Receptor (aa 524-795) with point mutations; expressed in transfected cells; host or cells: S. cerevisiae FY250", "T2 sequence (P00375 1-187)": "T1 sequence (P00375 1-187)", "T2 sequence (P06536 524-795 F620S/C656G limits assumed)": "T1 sequence (P06536 524-795 F620S/C656G limits assumed)", "assay": "β-galactosidase activity assay, strain V502Y", "text": "as §1, §2"}, "LexA eDHFR / B42 rGR2": {"molecular_target": "T3, LexA eDHFR / B42 rGR2 (UniProt P06536+P0ABQ4, C656G/F620S)", "T3 construct": "rat Glucocorticoid Receptor (aa 524-795) with point mutations; expressed in transfected cells; host or cells: S. cerevisiae FY250", "T3 sequence (P0ABQ4 1-159)": "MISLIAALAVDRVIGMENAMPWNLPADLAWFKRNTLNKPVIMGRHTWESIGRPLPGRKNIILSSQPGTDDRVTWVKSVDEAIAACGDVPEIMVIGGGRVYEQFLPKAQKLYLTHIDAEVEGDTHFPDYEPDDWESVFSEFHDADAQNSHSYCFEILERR", "T3 sequence (P06536 524-795 F620S/C656G limits assumed)": "T1 sequence (P06536 524-795 F620S/C656G limits assumed)", "assay": "β-galactosidase activity assay, strain V493Y", "text": "as §1, §2"}, "LexA rGR2 / B42 eDHFR": {"molecular_target": "T4, LexA rGR2 / B42 eDHFR (UniProt P06536+P0ABQ4, C656G/F620S)", "T4 construct": "rat Glucocorticoid Receptor (aa 524-795) with point mutations; expressed in transfected cells; host or cells: S. cerevisiae FY250", "T4 sequence (P06536 524-795 F620S/C656G limits assumed)": "T1 sequence (P06536 524-795 F620S/C656G limits assumed)", "T4 sequence (P0ABQ4 1-159)": "T3 sequence (P0ABQ4 1-159)", "assay": "β-galactosidase activity assay, strain V505Y", "text": "as §1, §2"}, "[3]": {"molecular_target": "T5, LexA (GSG)2rGR2 / B42 (GSG)2mDHFR (UniProt P00375+P06536, C656G/F620S)", "T5 construct": "rat Glucocorticoid Receptor (aa 524-795) with point mutations; expressed in transfected cells; host or cells: S. cerevisiae FY250", "T5 sequence (P06536 524-795 F620S/C656G limits assumed)": "T1 sequence (P06536 524-795 F620S/C656G limits assumed)", "T5 sequence (P00375 1-187)": "T1 sequence (P00375 1-187)", "assay": "β-galactosidase activity assay, strain V512Y", "text": "as §1, §2"}, "LexA mDHFR / B42 rGR2": {"molecular_target": "T6, LexA mDHFR / B42 rGR2 (UniProt P00375+P06536, C656G/F620S)", "T6 construct": "rat Glucocorticoid Receptor (aa 524-795) with point mutations; expressed in transfected cells; host or cells: S. cerevisiae FY250", "T6 sequence (P00375 1-187)": "T1 sequence (P00375 1-187)", "T6 sequence (P06536 524-795 F620S/C656G limits assumed)": "T1 sequence (P06536 524-795 F620S/C656G limits assumed)", "assay": "β-galactosidase activity assay, strain V495Y", "text": "as §1, §2"}, "[4]": {"molecular_target": "T7, LexA (GSG)2rGR2 / B42 eDHFR (UniProt P06536+P0ABQ4, C656G/F620S)", "T7 construct": "expressed in transfected cells; host or cells: S. cerevisiae FY250 with pMW106 lacZ reporter", "T7 sequence (P06536 524-795 F620S/C656G limits assumed)": "T1 sequence (P06536 524-795 F620S/C656G limits assumed)", "T7 sequence (P0ABQ4 1-159)": "T3 sequence (P0ABQ4 1-159)", "assay": "β-galactosidase activity assay, strain V506Y", "text": "as §1, §2"}, "[5]": {"molecular_target": "T8, LexA eDHFR / B42 gly6rGR2 (UniProt P06536+P0ABQ4, C656G/F620S)", "T8 construct": "rat Glucocorticoid Receptor (aa 524-795) with point mutations; expressed in transfected cells; host or cells: S. cerevisiae FY250", "T8 sequence (P0ABQ4 1-159)": "T3 sequence (P0ABQ4 1-159)", "T8 sequence (P06536 524-795 F620S/C656G limits assumed)": "T1 sequence (P06536 524-795 F620S/C656G limits assumed)", "assay": "β-galactosidase activity assay, strain V375Y", "text": "as §1, §2"}, "[6]": {"molecular_target": "T9, LexA mDHFR / B42 (GSG)rGR2 (UniProt P00375+P06536, C656G/F620S)", "T9 construct": "rat Glucocorticoid Receptor (aa 524-795) with point mutations; expressed in transfected cells; host or cells: S. cerevisiae FY250", "T9 sequence (P00375 1-187)": "T1 sequence (P00375 1-187)", "T9 sequence (P06536 524-795 F620S/C656G limits assumed)": "T1 sequence (P06536 524-795 F620S/C656G limits assumed)", "assay": "β-galactosidase activity assay, strain V497Y", "text": "as §1, §2"}, "[7]": {"molecular_target": "T10, LexA (GSG)2rGR2 / B42 (GSG)2eDHFR (UniProt P06536+P0ABQ4, C656G/F620S)", "T10 construct": "rat Glucocorticoid Receptor (aa 524-795) with point mutations; expressed in transfected cells; host or cells: S. cerevisiae FY250", "T10 sequence (P06536 524-795 F620S/C656G limits assumed)": "T1 sequence (P06536 524-795 F620S/C656G limits assumed)", "T10 sequence (P0ABQ4 1-159)": "T3 sequence (P0ABQ4 1-159)", "assay": "β-galactosidase activity assay, strain V510Y", "text": "as §1, §2"}},
  "data": [
    {"smiles": "C[C@@H]1C[C@H]2C3CCC4=CC(=O)C=C[C@]4(C)[C@@]3(F)[C@@H](O)C[C@]2(C)[C@@]1(O)C(=O)NCCSCc1cccc(CSCC[C@H](NC(=O)c2ccc(N(C)Cc3cnc4nc(N)nc(N)c4n3)cc2)C(=O)O)c1", "note": "(stereo partly shown) [DM1]", "values": [
      {"measurement": "B-gal activity", "setting": "[1]", "value": "12 β-galactosidase units"},
      {"measurement": "B-gal activity", "setting": "[2]", "value": "21 β-galactosidase units"},
      {"measurement": "B-gal activity", "setting": "LexA eDHFR / B42 rGR2", "value": "5753 β-galactosidase units"},
      {"measurement": "B-gal activity", "setting": "LexA rGR2 / B42 eDHFR", "value": "557 β-galactosidase units"},
      {"measurement": "B-gal activity", "setting": "[3]", "value": "−1 β-galactosidase units"},
      {"measurement": "B-gal activity", "setting": "LexA mDHFR / B42 rGR2", "value": "15 β-galactosidase units"},
      {"measurement": "B-gal activity", "setting": "[4]", "value": "519 β-galactosidase units"},
      {"measurement": "B-gal activity", "setting": "[5]", "value": "4978 β-galactosidase units"},
      {"measurement": "B-gal activity", "setting": "[6]", "value": "−8 β-galactosidase units"},
      {"measurement": "B-gal activity", "setting": "[7]", "value": "601 β-galactosidase units"}
    ]}
  ]
}
